Experimental data: patent US6352976B1, “Selective inhibitors of MMP-12” (Aventis Pharmaceuticals Inc., priority 1998, dated 2002)
Structures can show the parent of a compound that is named as a salt.

Key:
MMP-2 = molecular target: T1, MMP-2 (Homo sapiens, UniProt P08253); assay: Determination of inhibition constant (Ki) for MMP-2, fluorogenic substrate; type: biochemical; conditions: pH 7.6
T1 construct: made in house; host or cells: Pichia pastoris (strains KM71 / SMD1168, clone 24S; vector pHIL-D2)
T1 sequence (P08253 110-660): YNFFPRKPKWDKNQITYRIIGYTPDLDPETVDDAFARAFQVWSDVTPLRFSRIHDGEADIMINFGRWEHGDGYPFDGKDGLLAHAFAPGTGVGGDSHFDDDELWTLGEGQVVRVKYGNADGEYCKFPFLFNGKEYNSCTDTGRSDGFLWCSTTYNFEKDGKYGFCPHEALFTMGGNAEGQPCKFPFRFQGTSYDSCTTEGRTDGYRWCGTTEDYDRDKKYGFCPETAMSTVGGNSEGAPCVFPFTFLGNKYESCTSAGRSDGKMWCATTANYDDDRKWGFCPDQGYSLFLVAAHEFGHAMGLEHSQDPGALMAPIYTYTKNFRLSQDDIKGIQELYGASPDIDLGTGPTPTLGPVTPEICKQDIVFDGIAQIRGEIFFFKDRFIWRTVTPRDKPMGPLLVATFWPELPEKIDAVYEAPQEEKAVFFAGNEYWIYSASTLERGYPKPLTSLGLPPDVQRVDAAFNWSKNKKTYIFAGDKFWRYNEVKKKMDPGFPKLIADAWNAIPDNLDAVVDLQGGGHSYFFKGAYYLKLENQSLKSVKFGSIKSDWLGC
Excerpt: Recombinant MMP-2 was purified from the fermentation broth of yeast Pichia pastoris that carries the integrated MMP-2 gene into its chromosome. In brief, the full-length cDNA for MMP-2 was obtained by reverse transcription of RNA from human melanoma A375M cell line by the reverse transcriptase polymerase chain reaction (RT-PCR) using sequence specific oligonucleotides. The nucleotide sequence was confirmed by Taq cycle sequencing. The cDNA was ligated into the Pichia pastoris expression vector pHIL-D2 in such a way that the expression of pro-MMP-2 is under the control of the methanol inducible alcohol oxidase promoter. The expression construct was digested with either SalI or NsiI and used to transform the Pichia pastoris strains KM71 and SMD1168. A large-scale culture of a selected clone designated 24S was performed in a high cell density fermentor and the recombinant MMP-2 was purified from the culture supernatant by gelatin-sepharose 4B (Pharmacia). The enzyme is sufficiently pure at this stage for routine measurement of inhibition. If desired, however, the enzyme may be further purified by AcA 44 gel filtration (Spectra).
The active MMP-2 was obtained by activation of proMMP-2 at 37° C. for 1 h with 4-aminophenylmercuric acetate which was then removed by a Sephadex G-50 spin column. The enzyme is assayed using a fluorogenic substrate, Mca-Pro-Leu-Gly-Leu-Dpa-Ala-Arg-NH2, at 37° C. in 2.0 mL of assay buffer containing 50 mM Tris, pH 7.6, 0.2 M sodium chloride, 50 mM calcium chloride, 0.02% Brij-35, and 50 μM β-mercaptoethanol. The increase in fluorescence is monitored (λex 328 nm, λem 393 nm). Substrate and inhibitor stock solutions are made in DMF. The enzyme is added at the last to start the reaction. For routine measurement of a Ki value for a reversible, competitive inhibitor, the initial rates in the presence of at least four inhibitor concentrations (two inhibitor concentrations above Ki and two below Ki) are measured using [S]=1 μM (<<Km) and [MMP-2]=0.4 nM. Under these conditions, the measured Ki, app is close to true Ki.

[1] = molecular target: T2, MMP-12 (macrophage metalloelastase) (Homo sapiens, UniProt P39900); assay: Determination of the inhibition constant (Ki) for MMP-12, fluorogenic substrate; type: biochemical; conditions: pH 7.6
T2 construct: made in house
T2 sequence (P39900 106-263 limits assumed): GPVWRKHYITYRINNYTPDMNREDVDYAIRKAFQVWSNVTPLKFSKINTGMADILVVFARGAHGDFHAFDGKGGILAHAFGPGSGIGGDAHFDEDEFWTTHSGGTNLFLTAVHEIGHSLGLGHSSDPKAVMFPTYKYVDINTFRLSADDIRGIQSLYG
Experimental: MMP-12 (EC3.4.24.65) was cloned, expressed and purified according to Shapiro, S. D. et al., J Biol. Chem. 268, 23824-23829 (1993). […] Aliquots of MMP-12 were stored at −70° C.
The potency of inhibitors of MMP-12 was measured using either quartz cuvettes or microtiter plates. The activity of MMP-12 was measured using a fluorogenic substrate, Mca-Pro-Leu-Gly-Leu-Dpa-Ala-Arg-NH2 SEQ ID NO1, Knight, C. G. et al., FEBS Lett. 296,263-266 (1992), at 25° C. in an assay buffer containing 50 mM Tris, pH 7.6, 0.2 M sodium chloride, 50 mM calcium chloride, and 0.02% Brij-35. The increase in fluorescence due to cleavage of Gly-Leu peptide bond by MMP-12 was monitored with a Perkin-Elmer LS50B Fluorimeter (λex 328 nm, λem 393 nm, excitation slit 2.5, emission slit 10) for the cuvette assay and with a Molecular Devices Fmax fluorescence plate reader (λex 320 nm, λem 405 nm) for the microtiter plate assay. Substrate and inhibitor stock solutions were made in N,N-dimethylformamide (DMF) and 0.1% HCl-DMF, respectively.
Ki values were determined using the cuvette method by preparing a series of intermediate inhibitors solutions in 0.1% HCl-DMF and mixing the inhibitor with substrate (final concentration 2 μM) in a quartz cuvette containing 2 ml of assay buffer. MMP-12 was added to start the reaction at a concentration of 2 nM and progress curves were generated. For routine measurement of a Ki value for a reversible competitive inhibitor, the initial rates in the presence of at least four inhibitor concentrations (two concentrations above and two concentrations below the Ki) were measured [S]=2 μM (<<Km) and [MMP-12]=2 nM. Under these conditions, the measured Ki,app is close to the true Ki.
Ki values were determined using the microtiter plate method in a manner similar to that described for the cuvette method with some modifications. Four different inhibitor concentrations (50 μl in assay buffer) of each compound were added to separate wells of a microtiter plate and substrate was added (100 μl) to get a final concentration of […]. MMP-12 was added to a final concentration of 2 nM (50 μl) to start the reaction. Cleavage of substrate was recorded every 30 seconds for 30 minutes and progress curves were generated.
The Ki for a competitive inhibitor was calculated using: V0/Vi=(1+[I]/Ki,app) and Ki=Ki,app/(1+[S]/Km), where V0 is the initial rate in the absence of inhibitor, Vi is the initial rate in the presence of inhibitor at the concentration of [I], [S] is the substrate concentration, and Km is the Michaelis constant. If slow binding is observed (i.e. if the approach to the binding equilibrium is slow), the final steady-state rate rather than the initial rate is taken as Vi.

[2] = Table 1, Mca-Pro-Leu-Gly-Leu-Dpa-Ala-Arg-NH2, 37° C.
[3] = Table 1, Mca-Pro-Leu-Gly-Leu-Dpa-Ala-Arg-NH2, 25° C.

Ki (MMP-2; [2]) | Ki [1, 3] | Ki (MMP-2; Table 2 (comparative), method of Example B, 37° C.) | Ki ([1]; Table 2 (comparative), method of Example D, 25° C.) | SMILES
0.798 µM | 0.014 µM |  |  | CSCC[C@H](NC(=O)[C@@H](S)C(C)C)C(=O)N[C@@H](Cc1ccccc1)C(=O)O [Example 4, (S)-2-Mercapto-3-methylbutyroyl-(L)-methionyl-(L)-phenylalanine]
0.784 µM | 0.014 µM |  |  | CC(C)C[C@H](NC(=O)[C@@H](S)C(C)C)C(=O)N[C@@H](Cc1ccccc1)C(=O)O [Example 3, (S)-2-Mercapto-3-methylbutyroyl-(L)-leucyl-(L)-phenylalanine]
 |  | 0.0033 µM | 0.0006 µM | CNC(=O)[C@H](Cc1ccccc1)NC(=O)[C@H](CCc1ccccc1)NC(=O)C(S)C(C)C (stereo partly drawn) [Example 7, (S)-2-Mercapto-3-methylbutyroyl-(L)-homo-phenylalanyl-(L)-phenylalanine N-methyl amide, reference compound]
1.74 µM | 0.151 µM |  |  | CC(C)[C@H](S)C(=O)N[C@@H](CCCCN)C(=O)N[C@@H](Cc1ccccc1)C(=O)O [Example 5, (S)-2-Mercapto-3-methylbutyroyl-(L)-lysyl-(L)-phenylalanine trifluoroacetic acid salt]
